Results on five compounds are retold here after US7125564B2, “Water soluble and palatable complexes” (Lavipharm Laboratories, Inc., priority 2001, dated 2006).

Converted amounts (≈) assume the structure as drawn. Counter-ions that a name gives are not always drawn.

Data set [1] in a line: Water solubility of active agent with and without glycyrrhizin ammonium (24 h rotation, filtration, HPLC). Conditions: versus control with zero glycyrrhizin, 0.1 M glycyrrhizin ammonium, distilled water, room temperature.
The conditions of data set [2]: cited from earlier work.
The conditions of data set [3]: cited from earlier work; for bioavailability: oral administration.
For data set [4] the following is noted: cited from earlier work. This is another data set of the same source.
The nature of data set [5]: physchem. Conditions: thermodynamic from solid.

Regarding “5-[-2-ethoxy-5-(4-methylpiperazin-1ylsulphonyl)phenyl]-1-methyl -3-n-propyl-1,6-dihydro-7H-pyrazolo[4,3-d]pyrimidine [sildenafil]”, the “increase of solubility through complexation with glycyrrhizin” value in data set [1] was 200 fold; in data set [1] (listed as sildenfil), “more than 200 fold”.

Regarding `CCCc1nn(C)c2c(=O)[nH]c(-c3cc(S(=O)(=O)N4CCN(C)CC4)ccc3OCC)nc12` [Sildenafil citrate], in data set [2] (formulated as a regular film tablet), the solubility was 6000 to 8000 µg/mL. Further, the bioavailability entry in data set [3] was “about 40%”.

As to `O=C1CC2(CCCC2)CC(=O)N1CCCCN1CCN(c2ncccn2)CC1` [buspirone, 8-[4-[4-(2-pyrimidinyl)1-piperazinyl]butyl]-8-azaspiro(4,5)-decane-7,9-dione], in data set [4] (in man), the biological half-life is 2–11 hours. For the same compound, in data set [4] (oral), the “interindividual variation of the maximum plasma concentration” value is on record as “up to 10 fold”. The solubility at 24 h in data set [5] (aqueous with cosolvent or surfactant or cyclodextrin) was 44000 µg/mL (≈ 114000 µM); in data set [5] (water), 380 µg/mL (≈ 986 µM).

`NC(N)=Nc1nc(CSCCC(N)=NS(N)(=O)=O)cs1` [famotidine, N′(aminosulfonyl)-3-[[[2-[(diaminomethylene)amino]-4-thiazolyl]methyl]thio] propanimidamide]: in data set [2], the intrinsic water solubility is 278 µg/mL and the pKa is recorded as 6.8. Also, in data set [2] (ethanol), the solubility in ethanol entry is “insoluble”. For the same compound, the “solubility in glacial acetic acid” value in data set [2] (glacial acetic acid) is given as “freely soluble”. In data set [2] (water), the solubility in water entry was “very slightly soluble”. The “time to peak plasma concentration” value in data set [3] (after oral administration) is 1 to 3.5 h. Further, the bioavailability entry in data set [3] was “approximately 43%”. Further, the “effect of food on bioavailability” value in data set [3] (tablet formulation) was “unaffected by food”. For the same compound, the solubility at 24 h in data set [5] (water) was under 1000 µg/mL.

For `CC(C)(C)c1ccc(C(O)CCCN2CCC(C(O)(c3ccccc3)c3ccccc3)CC2)cc1` (stereo not drawn) [terfenadine], the “fraction of a tablet given by mouth changed to metabolites” value in data set [3] (oral tablet, first-pass effect) is 99.5%.
